Laboratory results: patent US4656178A (priority 1985, dated 1987)
Where a name gives a salt, the structure may show the parent alone. Read-outs that look alike come from different tables or passages of the source.

What was measured:
[1] = infiltration anesthesia in rabbits (intracutaneous); format: in vivo; settings: 0.01-0.05% and 0.1% solutions
Description: (§1) The local anesthetic effect of the preparation was studied on 14 intact rabbits. […] The results of the experiments on determination of the ability of the preparation to cause infiltration anesthesia have shown that 10-15 minutes after intracutaneous administration, to rabbits, of 0.01-0.05% and 0.1% solutions of the preparation anesthesia occurs which is characterized by an increased threshold of a pain irritation; the duration of the effect is 20 to 48 hours. Under the same conditions of the experiment, the local anesthetic effect of a 0.5% solution of novocaine lasts for 90 minutes on the average.

[2] = long-time administration, histological analysis of inner organs; format: in vivo, laboratory animals (dogs, rabbits, rats); settings: 10 mg/kg
[3] = system: coronary blood circulation; assay: volume rate of the coronary blood flow in cats; format: in vivo
Description: The effect of the pharmaceutical composition according to the present invention on the coronary blood circulation was studied in acute experiments on cats by the method of recording of the volume rate of the coronary blood flow. […] The introduction of 1 mg/kg of the preparation results in an increased volume rate of the coronary blood flow by 30-80% during a long time.

carcinogenicity = format: in vivo; settings: subcutaneously and per os, 0.5-2 mg/kg, 6 months, observation 2 years
[4] = system: potassium channels of the membrane of neurons; assay: ion currents through the somatic membrane of mollusc neurons: potassium channels; format: cell-based, mollusca
Description: The study of the effect produced by the preparation of the present invention on ion currents through the somatic membrane of neurons has shown that it selectively interacts with calcium and potassium channels of the membrane of neurons of mollusca, whereby the currents along these channels are suppressed.

[5] = local anesthetic effect in intact rabbits; format: in vivo
Description: as §1

aconitine arrhythmia [6] = assay: animal or person; format: in vivo, rats
Description: The assessment of the antiarrhythmic activity of the preparation was effected in acute and chronical experiments on rats, rabbits, cats and dogs. Various experimental models of arrhythmia were also used.
(§2) The atrioventricular arrhythmia caused by aconitine is one of the most reliable models for forecasting the efficiency of the antiarrhythmic action of the novel preparation in clinics. The experiments were conducted on both narcotized and non-narcotized animals. The preparation was administered per os, intramuscularly, intraperitoneally and intravenously 5 to 15 minutes prior to or 3-5 minutes after the administration of aconitine.
In doses of 0.2-0.5 mg/kg the preparation of this invention prevents the appearance of aconitine arrhythmia in 100% of the rats. […] Under similar experimental conditions a preliminary administration of novocainamide in the dose of 60 mg/kg intravenously produced an antiarrhythmic effect in 50% of the animals.

[7] = system: cardiac conductive system; format: in vivo, narcotized rats, cats, intact rabbits and dogs
Description: To investigate the character of the effect produced on the functions of the cardiac conductive system by the preparation according to the present invention, the ECG changes appearing in narcotized rats, cats, intact rabbits and dogs under the action of the preparation of this invention were studied. […] The effect of the preparation is retained for a long time.

[8] = system: arrhythmia induced by adrenalin; assay: arrhythmia induced by adrenalin in dogs with ligated coronary artery; format: in vivo; settings: 0.1-0.2 mg/kg
lethal dose in rabbits = format: in vivo
Description: The resorptive effect and toxicity of the preparation according to the present invention were studied on mice, rats, rabbits and dogs.
In doses of 5-6 mg/kg intravenously the preparation according to the present invention causes death of dogs and in doses of 3-4 mg/kg it is lethal for rabbits.

[9] = pharmacological effects, summary; settings: in vivo
[10] = system: lethal fibrillation of the heart induced by aconitine; assay: prevention of lethal fibrillation of the heart induced by aconitine in rats; format: in vivo; settings: 0.5 and 1 mg/kg
[11] = system: cardiotoxic effect of the preparation; assay: sodium bicarbonate at cardiotoxic effect of the preparation in dogs; settings: toxic doses
cardiac contractions = assay: strength of cardiac contractions in narcotized rats and guinea pigs; format: in vivo; settings: intravenous, 0.1, 0.5, 1, 2 mg/kg
Description: To find out a negative inotropic effect on the heart tissue, two series of experiments have been carried out:
(2) the study of the preparation according to the present invention on the strength of cardiac contractions on narcotized (sodium ethaminal, 50-60 mg/kg intraperitoneally) rats and guinea pigs.

[12] = teratogenicity in pregnant rats; format: in vivo; settings: 317 pregnant rats, 2,377 feti
[13] = duration of antiarrhythmic effect compared with quinidine and novocainamide; settings: in vivo
Description: (§3) The duration of the antiarrhythmic action of the preparation was studied on rats intravenously administered with aconitine 1, 2, 4, 6, 24 and 48 hours after the preparation administration per os.

aconitine arrhythmia [14] = assay: prevention of aconitine arrhythmia in rats and dogs; format: in vivo
Description: as §2, §3

allergenic effect = format: in vivo; settings: 12 guinea pigs and 6 rabbits
[15] = system: cardiac rhythm disturbances; assay: clinical study in patients with cardiac rhythm disturbances; format: in vivo, human
Description: The clinical study of the preparation according to the present invention was carried out on 200 patients suffering from various diseases accompanied by different cardiac rhythm disturbances (ischemic heart disease, diverse kinds of cardiomyopathy). The preparation was administered intravenously using 1-2 ampoules (0.5% solution of the preparation, 2 ml) and per os in tablets of 50 mg each (2-3 tablets a day during the first 2 days and 1-2 tablets a day during all following days). ECG characteristics, arterial pressure, heart beat rate and various parameters of hemodynamics were recorded.

For CCN1CC2(OC(=O)c3ccccc3NC(C)=O)CCC(OC)C34C1C(CC23)C1(O)CC(OC)C2CC4C1(O)C2OC (stereo not shown) [lappaconitine hydrobromide], the “duration of infiltration anesthesia” value [1] was 20 to 48 h, the “onset of infiltration anesthesia” value ([1]; intracutaneous) was 10 to 15 min and the “structural changes in inner organs” value [2] was “structural changes in the inner organs”. The “animals with increased coronary blood flow” value ([3]; 0.5 mg/kg) was 40%, the “increase of coronary blood flow” value ([3]; 0.5 mg/kg, in 40% of the animals) was 15-30% and the “increase of volume rate of coronary blood flow” value ([3]; 1 mg/kg, during a long time) was 30-80%. For the same compound, the “effect on coronary blood flow” value ([3]; intravenous, 0.1 mg/kg) was “does not provide any effect”, the carcinogenic properties (carcinogenicity) was “no carcinogenic properties” and the “effect on currents along potassium channels” value [4] was “suppressed”. For the same compound, the “anesthetic activity relative to tetracaine hydrochloride” value ([5]; 14 intact rabbits) was “matches tetracaine hydrochloride in its anesthetic activity”, the “depth of anesthesia relative to tetracaine hydrochloride” value ([5]; rabbit, in vivo) was “inferior to tetracaine hydrochloride” and the “duration of anesthetic effect relative to tetracaine hydrochloride” value ([5]; rabbit, in vivo) was “more than 6 times”. The minimal effective dose (aconitine arrhythmia [6]; Rattus norvegicus, read-out: dose from which the antiarrhythmic effect is revealed) was 0.03 mg/kg, the “animals in which appearance of aconitine arrhythmia is prevented” value (aconitine arrhythmia [6]; doses of 0.2-0.5 mg/kg, rats) was 100% and the “antiarrhythmic index (LD50/ED50)” value (aconitine arrhythmia [6]; prophylactic effect, aconitine arrhythmia) was 118.0. The “effect on ECG” value ([7]; 1-2 mg/kg) was “increase the ranges PQ, QRS, QT, insignificantly R-R; the ripple S is deepened, the amplitude of the ripple T is uniformly increased”, the “effect on myocardial conductivity and sinus node automatism” value ([7]; in vivo) was “lowers conductivity of the myocardium and, to a lesser extent, automatism of the sinus node” and the “sublethal and lethal doses” value ([7]; intravenous) was 4 to 6 mg/kg. For the same compound, the “effect on ECG” value ([7]; intravenous, 0.5 mg/kg) was “deceleration of the atrioventricular conductivity and a certain rarification of the rhythm”, the “effect on ECG” value ([7]; intravenous, 4-6 mg/kg) was “growing inhibition of conductivity along the cardiac conducting system” and the “effect on ECG” value ([7]; rats, intravenous, 0.05 to 0.25 mg/kg) was “does not cause in rats any substantial effect on the ECG”. For the same compound, the duration of effect [8] was “more than 2 hours”, the “effect on arrhythmia induced by adrenalin” value [8] was “cuts short the arrhythmia induced by adrenalin” and the “effect on arterial pressure and on adrenalin hypertension” value [8] was “does not affect the level of arterial pressure or the height of elevation of arterial pressure (hypertension) caused by adrenalin”. The “time to maximum effect” value [8] was 5 to 10 min, the lethal dose (lethal dose in rabbits) was 3 to 4 mg/kg and the moderate additional effects [9] was “moderate coronarydilating, spasmolytic, local anesthetic, anti-inflammatory and sedative effects”. For the same compound, the “reduction of systemic arterial pressure and negative inotropic effect” value [9] was “not accompanied by reduction of the systemic arterial pressure, and a negative inotropic effect on the cardiac tissue”, the “prevention of lethal fibrillation of the heart” value [10] was “fully prevents a lethal fibrillation of the heart” and the “arterial pressure in overdosing” value [11] was “reduction of the arterial pressure”. For the same compound, the “influence on amplitude of cardiac contractions” value (cardiac contractions) was “no influence on the amplitude of cardiac contractions”, the teratogenicity [12] was “not a potentially teratogenic substance” and the “duration of effect relative to quinidine and novocainamide” value [13] was 10 times. The “duration of antiarrhythmic action” value (aconitine arrhythmia [14]; aconitine model) was “up to 24 hours”, the “animals in which development of aconitine arrhythmia is fully prevented” value (aconitine arrhythmia [14]; intravenous, 0.2-0.3 mg/kg, narcotized rats and dogs) was 100% and the “animals in which development of aconitine arrhythmia is fully prevented” value (aconitine arrhythmia [14]; peroral, 1-2 mg/kg, dogs and intact rats) was 100%. The allergenic effect (allergenic effect) was “no allergenic effect”, the efficiency by form ([15]; course treatment) was “more efficient for course treatment in tabletted forms” and the contraindications ([15]; human, in vivo) was “No contraindications”. For the same compound, the “side effects (hypotension, changed heart beat rate, pulse, breathing)” value ([15]; patients) was “not observed”, the “antiarrhythmic effect in patients” value ([15]; patients with stable form of ventricular and supraventricular extrasystole) was “pronounced antiarrhythmic effect” and the “side effects in some cases” value ([15]; per os, intramuscular or intravenous) was “weakness or giddeness”. The “time after which side effects pass” value ([15]; weakness or giddeness) was 10 to 15 min.
